Data taken from PubChem BioAssay AID1919013 (Molecular Pharmacology Branch, DTP, NCI, 2023).
Several values for one entry are separate records, joined by “and”; a condition that tells them apart may be missing. Equal values may be shown once.

Test system: LG0703-F498-PDC complex spheroid growth
Experiment: Anticancer human tumor LG0703-F498-PDC patient-derived lung adenocarcinoma cell line growth inhibition [AhR]
Details: for viability, T/C: stronger effect = lower value
Summary of the method: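 Spheroids combined tumor cells with HUVEC endothelial cells and human MSCs as stroma. AhR antagonists were paired with standard or investigational drugs, each dosed in half-log steps down from near clinical Cmax, or from 10 microM where Cmax was unknown.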

[1] = curve of first compound, second compound 0.1 µM
[2] = curve of first compound, second compound 0.316 µM
[3] = curve of first compound, second compound 1 µM
[4] = curve of first compound, second compound 3.16 µM
[5] = curve of first compound, second compound 10 µM
[6] = second compound 0.1 µM, first compound 0.0316 µM
[7] = second compound 0.1 µM, first compound 0.1 µM
[8] = second compound 0.1 µM, first compound 0.316 µM
[9] = second compound 0.1 µM, first compound 1 µM
[10] = second compound 0.1 µM, first compound 3.16 µM
[11] = second compound 0.1 µM, first compound 10 µM
[12] = second compound 0.316 µM, first compound 0.0316 µM
[13] = second compound 0.316 µM, first compound 0.1 µM
[14] = second compound 0.316 µM, first compound 0.316 µM
[15] = second compound 0.316 µM, first compound 1 µM
[16] = second compound 0.316 µM, first compound 3.16 µM
[17] = second compound 0.316 µM, first compound 10 µM
[18] = second compound 1 µM, first compound 0.0316 µM
[19] = second compound 1 µM, first compound 0.1 µM
[20] = second compound 1 µM, first compound 0.316 µM
[21] = second compound 1 µM, first compound 1 µM
[22] = second compound 1 µM, first compound 3.16 µM
[23] = second compound 1 µM, first compound 10 µM
[24] = second compound 3.16 µM, first compound 0.0316 µM
[25] = second compound 3.16 µM, first compound 0.1 µM
[26] = second compound 3.16 µM, first compound 0.316 µM
[27] = second compound 3.16 µM, first compound 1 µM
[28] = second compound 3.16 µM, first compound 3.16 µM
[29] = second compound 3.16 µM, first compound 10 µM
[30] = second compound 10 µM, first compound 0.0316 µM
[31] = second compound 10 µM, first compound 0.1 µM
[32] = second compound 10 µM, first compound 0.316 µM
[33] = second compound 10 µM, first compound 1 µM
[34] = second compound 10 µM, first compound 3.16 µM
[35] = second compound 10 µM, first compound 10 µM
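Also: luminescence taken as a proxy for viable cell amount.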
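For viability, T/C in this document: percent of DMSO vehicle control where 100% means growth equal to vehicle.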

Nc1ccccc1NC(=O)c1ccc(CNC(=O)OCc2cccnc2)cc1 + CC(CO)NC(=O)c1cc(-c2ccc(Cl)cc2)nn(-c2cnn(C)c2)c1=O
IC50 [1]: 401 nM | IC50 [2]: 428 nM | IC50 [3]: 461 nM | IC50 [4]: 413 nM | IC50 [5]: 335 nM | viability, T/C [6]: 82.4% | viability, T/C [7]: 86.8% | viability, T/C [8]: 56.2% | viability, T/C [9]: 19.3% | viability, T/C [10]: 2.71% | viability, T/C [11]: 0.45% | viability, T/C [12]: 72.8% | viability, T/C [13]: 71.6% | viability, T/C [14]: 59.7% | viability, T/C [15]: 22.6% | viability, T/C [16]: 2.65% | viability, T/C [17]: 0.63% | viability, T/C [18]: 77.8% | viability, T/C [19]: 79.9% | viability, T/C [20]: 64.5% | viability, T/C [21]: 19.6% | viability, T/C [22]: 3.74% | viability, T/C [23]: 0.67% | viability, T/C [24]: 74.3% | viability, T/C [25]: 71.6% | viability, T/C [26]: 59.3% | viability, T/C [27]: 19.7% | viability, T/C [28]: 2.42% | viability, T/C [29]: 0.89% | viability, T/C [30]: 70.4% | viability, T/C [31]: 77% | viability, T/C [32]: 48.1% | viability, T/C [33]: 21.8% | viability, T/C [34]: 3.12% | viability, T/C [35]: 1.17%

CCc1c2c(nc3ccc(O)cc13)-c1cc3c(c(=O)n1C2)COC(=O)[C@]3(O)CC + Cc1ccccc1N=Nc1ccc(NC(=O)c2ccnn2C)c(C)c1
IC50 [1]: 49.4 nM | IC50 [2]: 43.3 nM | IC50 [3]: 30.7 nM | IC50 [4]: 23.9 nM | IC50 [5]: 37.1 nM | viability, T/C (second compound 0.1 µM, first compound 0.000949 µM): 79.1% | viability, T/C (second compound 0.1 µM, first compound 0.003 µM): 92.9% | viability, T/C (second compound 0.1 µM, first compound 0.00949 µM): 77.1% | viability, T/C (second compound 0.1 µM, first compound 0.03 µM): 56.8% | viability, T/C (second compound 0.1 µM, first compound 0.0949 µM): 41.5% | viability, T/C (second compound 0.1 µM, first compound 0.3 µM): 29.2% | viability, T/C (second compound 0.316 µM, first compound 0.000949 µM): 98.5% | viability, T/C (second compound 0.316 µM, first compound 0.003 µM): 94.6% | viability, T/C (second compound 0.316 µM, first compound 0.00949 µM): 75.8% | viability, T/C (second compound 0.316 µM, first compound 0.03 µM): 57.9% | viability, T/C (second compound 0.316 µM, first compound 0.0949 µM): 35.6% | viability, T/C (second compound 0.316 µM, first compound 0.3 µM): 24.9% | viability, T/C (second compound 1 µM, first compound 0.000949 µM): 86.5% | viability, T/C (second compound 1 µM, first compound 0.003 µM): 79.7% | viability, T/C (second compound 1 µM, first compound 0.00949 µM): 69.2% | viability, T/C (second compound 1 µM, first compound 0.03 µM): 48.4% | viability, T/C (second compound 1 µM, first compound 0.0949 µM): 36.3% | viability, T/C (second compound 1 µM, first compound 0.3 µM): 24.5% | viability, T/C (second compound 3.16 µM, first compound 0.000949 µM): 93.9% | viability, T/C (second compound 3.16 µM, first compound 0.003 µM): 83.3% | viability, T/C (second compound 3.16 µM, first compound 0.00949 µM): 64.3% | viability, T/C (second compound 3.16 µM, first compound 0.03 µM): 45% | viability, T/C (second compound 3.16 µM, first compound 0.0949 µM): 34.1% | viability, T/C (second compound 3.16 µM, first compound 0.3 µM): 21.7% | viability, T/C (second compound 10 µM, first compound 0.000949 µM): 65.8% | viability, T/C (second compound 10 µM, first compound 0.003 µM): 79% | viability, T/C (second compound 10 µM, first compound 0.00949 µM): 69.1% | viability, T/C (second compound 10 µM, first compound 0.03 µM): 51.7% | viability, T/C (second compound 10 µM, first compound 0.0949 µM): 35.8% | viability, T/C (second compound 10 µM, first compound 0.3 µM): 24.7%

Nc1ncn(C2CC(O)C(CO)S2)c(=O)n1 (configuration not stated)
viability, T/C (compound 0.000949 µM): 103% and 105% and 108% | viability, T/C (compound 0.003 µM): 92.8% and 98.3% and 109% | viability, T/C (compound 0.00949 µM): 95.4% and 103% and 105% | viability, T/C (compound 0.03 µM): 99.9% and 97.8% and 99.8% | viability, T/C (compound 0.0949 µM): 113% (2×) and 107% | viability, T/C (compound 0.3 µM): 97.1% and 96.6% and 98.7% | IC50 (curve of compound): > 300 nM

COc1cc(C2c3cc4c(cc3C(OC3OC5COC(C)OC5C(O)C3O)C3COC(=O)C23)OCO4)cc(OC)c1O (configuration not stated) + Cc1ccccc1N=Nc1ccc(NC(=O)c2ccnn2C)c(C)c1
IC50 [1]: > 10000 nM | IC50 [2]: > 10000 nM | IC50 [3]: > 10000 nM | IC50 [4]: > 10000 nM | IC50 [5]: > 10000 nM | viability, T/C [6]: 94.8% | viability, T/C [7]: 103% | viability, T/C [8]: 86.2% | viability, T/C [9]: 95.2% | viability, T/C [10]: 91.3% | viability, T/C [11]: 72.1% | viability, T/C [12]: 96.2% | viability, T/C [13]: 93.5% | viability, T/C [14]: 106% | viability, T/C [15]: 79.5% | viability, T/C [16]: 68.4% | viability, T/C [17]: 59.3% | viability, T/C [18]: 79.2% | viability, T/C [19]: 104% | viability, T/C [20]: 99.4% | viability, T/C [21]: 79.8% | viability, T/C [22]: 65.2% | viability, T/C [23]: 62.7% | viability, T/C [24]: 85.5% | viability, T/C [25]: 94% | viability, T/C [26]: 93.5% | viability, T/C [27]: 80.2% | viability, T/C [28]: 74.2% | viability, T/C [29]: 59.6% | viability, T/C [30]: 77% | viability, T/C [31]: 96.5% | viability, T/C [32]: 93.5% | viability, T/C [33]: 73.5% | viability, T/C [34]: 81.4% | viability, T/C [35]: 70.6%
